Activity calls are given as the source filed them.
Columns and labels:
Beta-lactamase [1] = target: T1, Beta-lactamase (Pseudomonas aeruginosa, UniProt Q79MP6); test: inhibition of IMP-1 beta-lactamase activity – biochemical, epi-absorbance, selectivity assay for VIM-2 inhibitor project, dose response (AID 1920)
Beta-lactamase [2] = target: Beta-lactamase (Salmonella choleraesuis (strain SC-B67), UniProt Q5J463); test: Epi-absorbance-based counterscreen for selective VIM-2 inhibitors: dose response biochemical high throughput screening assay to identify inhibitors of TEM-1 serine-beta-lactamase.
Beta-lactamase (Salmonella choleraesuis (strain SC-B67), UniProt Q5J463), sequence (Q5J463 whole entry): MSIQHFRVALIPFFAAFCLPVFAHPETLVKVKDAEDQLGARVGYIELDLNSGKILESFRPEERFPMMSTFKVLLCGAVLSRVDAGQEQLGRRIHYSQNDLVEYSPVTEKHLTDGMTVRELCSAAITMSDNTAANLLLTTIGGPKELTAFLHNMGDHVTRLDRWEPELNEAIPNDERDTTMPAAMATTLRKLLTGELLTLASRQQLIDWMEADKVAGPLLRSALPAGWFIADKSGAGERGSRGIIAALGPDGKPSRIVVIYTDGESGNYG

Beta-lactamase [3] = target: T1, Beta-lactamase; test: […] counterscreen for selective VIM-2 inhibitors: dose response biochemical high throughput screening assay to identify inhibitors of IMP-1 metallo-beta-lactamase.
[4] = target: T2, DNA repair protein RAD52 homolog (Homo sapiens, UniProt P43351); type: functional, biochemical
T2 sequence (P43351 whole entry): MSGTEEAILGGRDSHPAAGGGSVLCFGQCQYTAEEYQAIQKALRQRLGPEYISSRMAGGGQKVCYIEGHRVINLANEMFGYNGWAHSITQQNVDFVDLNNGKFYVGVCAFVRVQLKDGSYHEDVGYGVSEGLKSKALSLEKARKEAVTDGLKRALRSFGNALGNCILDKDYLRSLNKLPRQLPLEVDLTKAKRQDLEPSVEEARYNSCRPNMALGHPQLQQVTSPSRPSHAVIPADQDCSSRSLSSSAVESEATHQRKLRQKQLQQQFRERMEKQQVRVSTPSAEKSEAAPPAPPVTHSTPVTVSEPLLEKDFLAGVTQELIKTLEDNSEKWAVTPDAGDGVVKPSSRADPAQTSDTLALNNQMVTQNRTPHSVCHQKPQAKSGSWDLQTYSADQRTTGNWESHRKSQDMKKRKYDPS

[5] = acridine orange displacement from DNA – biochemical, fluorescence polarization, cherry-pick, artefact control for RAD54 inhibitor project, dose response (AID 651673); type: functional
[6] = target: T3, DNA repair and recombination protein RAD54-like (Homo sapiens, UniProt Q92698); test: RAD54 Holliday junction migration blockers – biochemical, fluorescence, cherry-picked samples, dose series, confirmation (AID 651657); type: functional
T3 sequence (Q92698 whole entry): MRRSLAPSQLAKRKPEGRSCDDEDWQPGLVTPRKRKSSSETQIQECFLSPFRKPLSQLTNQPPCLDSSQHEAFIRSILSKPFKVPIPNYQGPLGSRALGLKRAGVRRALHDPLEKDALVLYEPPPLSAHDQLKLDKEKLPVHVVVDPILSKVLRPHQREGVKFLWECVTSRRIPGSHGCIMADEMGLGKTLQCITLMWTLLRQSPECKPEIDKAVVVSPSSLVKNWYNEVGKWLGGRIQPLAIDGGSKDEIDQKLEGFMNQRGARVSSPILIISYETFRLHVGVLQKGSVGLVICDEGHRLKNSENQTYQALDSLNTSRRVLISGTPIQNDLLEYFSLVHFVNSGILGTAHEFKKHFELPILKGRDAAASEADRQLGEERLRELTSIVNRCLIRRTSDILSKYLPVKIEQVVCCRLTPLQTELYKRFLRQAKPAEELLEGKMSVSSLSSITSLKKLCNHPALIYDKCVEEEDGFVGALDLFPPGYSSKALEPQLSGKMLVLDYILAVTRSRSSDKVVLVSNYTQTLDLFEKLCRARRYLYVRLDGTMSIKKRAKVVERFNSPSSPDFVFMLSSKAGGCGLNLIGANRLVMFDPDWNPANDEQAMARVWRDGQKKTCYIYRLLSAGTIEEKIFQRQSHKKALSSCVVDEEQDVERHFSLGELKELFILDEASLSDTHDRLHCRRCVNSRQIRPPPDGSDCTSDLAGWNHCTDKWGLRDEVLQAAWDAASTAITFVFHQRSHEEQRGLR

[7] = target: T4, Sentrin-specific protease 1 (Homo sapiens, UniProt Q9P0U3); test: Dose response confirmation of small molecule inhibitors of the catalytic domain of the SUMO protease, SENP1 in a FRET assay.; type: functional; settings: read-out: IC50_Mean
T4 sequence (Q9P0U3 whole entry, the tested form may be a part): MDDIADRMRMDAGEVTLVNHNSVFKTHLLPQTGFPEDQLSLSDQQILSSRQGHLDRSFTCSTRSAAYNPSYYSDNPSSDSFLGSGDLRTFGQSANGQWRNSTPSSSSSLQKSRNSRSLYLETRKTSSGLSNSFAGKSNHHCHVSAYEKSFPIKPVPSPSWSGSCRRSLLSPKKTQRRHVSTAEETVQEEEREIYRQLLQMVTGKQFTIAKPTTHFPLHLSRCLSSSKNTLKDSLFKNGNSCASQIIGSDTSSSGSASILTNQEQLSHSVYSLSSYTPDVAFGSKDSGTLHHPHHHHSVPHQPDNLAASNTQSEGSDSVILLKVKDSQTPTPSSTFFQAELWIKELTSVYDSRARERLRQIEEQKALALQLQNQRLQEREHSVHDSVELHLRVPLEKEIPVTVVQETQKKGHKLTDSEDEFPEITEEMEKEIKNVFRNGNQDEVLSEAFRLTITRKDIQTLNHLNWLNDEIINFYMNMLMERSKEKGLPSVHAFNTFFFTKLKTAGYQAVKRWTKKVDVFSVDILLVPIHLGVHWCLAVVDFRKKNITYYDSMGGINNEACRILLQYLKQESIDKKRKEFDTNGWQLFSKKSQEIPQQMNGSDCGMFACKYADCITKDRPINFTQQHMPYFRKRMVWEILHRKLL

[8] = target: T4, Sentrin-specific protease 1; test: SENP1 catalytic domain blockers, concentration series – biochemical, kinetic FRET, dose response (AID 651697); type: functional; settings: read-out: IC50_Mean
[9] = viability loss in HEK293T cells – cell-based, cherry-picks, cytotoxicity control for HIV Vif inhibitor project, dose response (AID 652208); type: functional
[10] = DRD fibroblast viability loss – cell-based, non-viral oncogenic, luminescence, dose response (AID 1934); type: functional; settings: Homo sapiens
[11] = non-specific 3'UTR reporter inhibition in Clone20-Shn3RL – cell-based, Renilla luciferase, cherry-picked, counter-screen for Shn3 inhibitor project, dose response (AID 624133); type: functional
BJ [12] = test: growth inhibition of engineered Ras-driven BJ cells – cell-based, alamar blue fluorescence, cherrypicked samples, dose response (AID 2631); type: functional; settings: Homo sapiens;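 also: confirmatory dose-response assay in RAS-dependent BJ fibroblasts engineered with TERT, LT and ST, with cytotoxicity read by fluorescence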
[13] = reduction of Shn3 3'UTR-driven luciferase in osteoblasts – cell-based, Clone20 osteoblasts, firefly luciferase, cherry-picked, dose response (AID 624132); type: functional;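 also: firefly luciferase luminescence from reporter carrying the Shn3 3'UTR in osteoblasts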
[14] = target: T5, Rac GTPase-activating protein 1 (Homo sapiens, UniProt Q9H0H5); test: blockers of MgcRacGAP-driven Rac1 GTP hydrolysis – biochemical, ADP Hunter fluorescence, primary and confirmatory, confirmation (AID 624330); type: functional
T5 sequence (Q9H0H5 whole entry): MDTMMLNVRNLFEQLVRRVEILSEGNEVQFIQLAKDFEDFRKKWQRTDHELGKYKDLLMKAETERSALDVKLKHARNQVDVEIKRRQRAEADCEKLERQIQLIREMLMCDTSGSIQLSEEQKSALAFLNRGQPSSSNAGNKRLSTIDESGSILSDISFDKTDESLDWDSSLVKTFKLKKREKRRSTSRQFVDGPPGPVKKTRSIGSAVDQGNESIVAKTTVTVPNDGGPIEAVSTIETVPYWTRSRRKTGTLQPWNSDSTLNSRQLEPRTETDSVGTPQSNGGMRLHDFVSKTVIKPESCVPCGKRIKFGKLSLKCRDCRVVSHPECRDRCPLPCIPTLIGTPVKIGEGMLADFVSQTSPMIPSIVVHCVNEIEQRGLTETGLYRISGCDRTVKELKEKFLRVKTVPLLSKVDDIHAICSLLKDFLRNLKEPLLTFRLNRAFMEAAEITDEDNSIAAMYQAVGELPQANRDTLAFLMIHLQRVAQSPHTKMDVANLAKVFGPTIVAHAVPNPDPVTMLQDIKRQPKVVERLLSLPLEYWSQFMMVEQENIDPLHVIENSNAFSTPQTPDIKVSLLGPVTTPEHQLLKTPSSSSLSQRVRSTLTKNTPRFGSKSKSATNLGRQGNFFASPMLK

BJ [15] = test: BJ-TERT fibroblast viability loss – cell-based, RAS-independent, luminescence, dose response (AID 1933); type: functional; settings: Homo sapiens
[16] = loss of viability in HepG2 cells – cell-based, CellTiter-Glo, cherry-picked, cytotoxicity control for Shn3 inhibitor project, dose response (AID 624134); type: functional
BJ [17] = test: BJ-TERT-LT-ST fibroblast viability loss – cell-based, RAS-independent, luminescence, dose response (AID 1935); type: functional; settings: Homo sapiens;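 also: BJ fibroblasts immortalized with TERT plus LT and ST oncogenes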
[18] = mouse fibroblast viability loss – cell-based, cherry-pick samples, set 2, cytotoxicity control for T. cruzi growth inhibitor project, dose response (AID 651817); type: functional; settings: NIH3T3
[19] = target: T6, Sentrin-specific protease 8 (Homo sapiens, UniProt Q96LD8); type: functional
T6 sequence (Q96LD8 whole entry): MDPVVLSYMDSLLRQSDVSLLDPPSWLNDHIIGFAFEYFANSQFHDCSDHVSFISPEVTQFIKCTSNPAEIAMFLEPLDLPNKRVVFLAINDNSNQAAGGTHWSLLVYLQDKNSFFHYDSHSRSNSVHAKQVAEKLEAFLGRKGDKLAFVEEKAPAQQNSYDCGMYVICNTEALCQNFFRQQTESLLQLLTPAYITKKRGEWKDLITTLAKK

[20] = target: T6, Sentrin-specific protease 8; type: functional; remark: listed apart in the source
Caspase-3 = target: T7, Caspase-3 (Homo sapiens, UniProt P42574); test: Dose-response confirmation of uHTS inhibitor hits of Sentrin-Specific Protease 8 in a Caspase-3 Fluorescence assay.; type: functional
T7 sequence (P42574 whole entry): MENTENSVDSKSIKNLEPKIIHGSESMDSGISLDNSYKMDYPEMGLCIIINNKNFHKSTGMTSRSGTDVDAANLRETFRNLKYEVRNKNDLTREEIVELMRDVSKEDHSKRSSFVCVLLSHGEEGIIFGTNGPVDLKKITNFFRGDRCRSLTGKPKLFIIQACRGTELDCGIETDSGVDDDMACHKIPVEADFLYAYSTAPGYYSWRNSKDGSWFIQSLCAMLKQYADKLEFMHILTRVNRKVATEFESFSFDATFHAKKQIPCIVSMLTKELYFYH

[21] = target: Botulinum neurotoxin type F (Clostridium botulinum, UniProt P30996); test: High-throughput multiplex microsphere dose response for inhibitors of toxin protease, specifically Botulinum neurotoxin light chain F protease, compounds from Powder Set 01.; type: functional, Clostridium botulinum Bf; settings: read-out: EC50_MICROM
Botulinum neurotoxin type F, sequence (P30996 1-436 limits assumed): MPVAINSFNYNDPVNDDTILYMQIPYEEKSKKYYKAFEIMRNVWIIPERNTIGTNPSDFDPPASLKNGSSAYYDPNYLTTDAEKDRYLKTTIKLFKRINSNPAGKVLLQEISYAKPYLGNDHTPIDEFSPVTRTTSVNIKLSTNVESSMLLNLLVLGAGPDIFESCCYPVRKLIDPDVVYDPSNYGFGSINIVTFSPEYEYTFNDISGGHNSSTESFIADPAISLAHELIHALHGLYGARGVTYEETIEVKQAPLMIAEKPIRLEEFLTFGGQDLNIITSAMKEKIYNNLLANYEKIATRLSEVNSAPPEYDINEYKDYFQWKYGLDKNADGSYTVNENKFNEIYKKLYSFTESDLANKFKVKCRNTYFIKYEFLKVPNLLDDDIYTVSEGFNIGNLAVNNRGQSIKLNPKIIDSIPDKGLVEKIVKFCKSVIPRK

Lethal factor = Lethal factor (Bacillus anthracis, UniProt P15917); test: High-throughput multiplex microsphere dose response for inhibitors of toxin protease, specifically Lethal Factor protease, compounds from Powder Set 01.; type: functional, Bacillus anthracis str. A2012; settings: read-out: EC50_MICROM
Lethal factor, sequence (P15917 whole entry): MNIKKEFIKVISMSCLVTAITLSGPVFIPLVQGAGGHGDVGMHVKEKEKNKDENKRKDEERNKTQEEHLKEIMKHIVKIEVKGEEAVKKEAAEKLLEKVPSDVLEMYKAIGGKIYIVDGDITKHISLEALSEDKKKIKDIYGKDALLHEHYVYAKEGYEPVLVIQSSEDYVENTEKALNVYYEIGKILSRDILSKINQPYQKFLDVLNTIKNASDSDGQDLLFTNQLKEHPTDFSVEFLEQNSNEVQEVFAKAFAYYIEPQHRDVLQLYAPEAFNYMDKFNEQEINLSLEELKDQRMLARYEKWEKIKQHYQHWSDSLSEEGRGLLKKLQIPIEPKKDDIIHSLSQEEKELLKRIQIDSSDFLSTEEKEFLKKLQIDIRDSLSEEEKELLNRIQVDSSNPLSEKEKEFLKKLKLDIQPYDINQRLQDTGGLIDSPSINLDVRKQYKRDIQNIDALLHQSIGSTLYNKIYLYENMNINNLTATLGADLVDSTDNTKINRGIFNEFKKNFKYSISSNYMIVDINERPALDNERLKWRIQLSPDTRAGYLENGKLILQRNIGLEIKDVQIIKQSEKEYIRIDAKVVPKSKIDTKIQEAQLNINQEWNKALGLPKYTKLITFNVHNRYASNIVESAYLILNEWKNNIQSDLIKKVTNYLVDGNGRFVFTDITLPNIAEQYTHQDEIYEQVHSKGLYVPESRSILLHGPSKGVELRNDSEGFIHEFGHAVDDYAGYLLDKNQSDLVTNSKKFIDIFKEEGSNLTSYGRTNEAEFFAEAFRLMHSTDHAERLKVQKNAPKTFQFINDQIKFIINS

[22] = target: T8, Botulinum neurotoxin type A (Clostridium botulinum (strain Hall / ATCC 3502 / NCTC 13319 / Type A), UniProt P0DPI1); test: Confirmatory FRET assay using full length substrates for Botulinum neurotoxin light chain A protease, with Powder Set01.; type: functional
T8 sequence (P0DPI1 2-448 limits assumed): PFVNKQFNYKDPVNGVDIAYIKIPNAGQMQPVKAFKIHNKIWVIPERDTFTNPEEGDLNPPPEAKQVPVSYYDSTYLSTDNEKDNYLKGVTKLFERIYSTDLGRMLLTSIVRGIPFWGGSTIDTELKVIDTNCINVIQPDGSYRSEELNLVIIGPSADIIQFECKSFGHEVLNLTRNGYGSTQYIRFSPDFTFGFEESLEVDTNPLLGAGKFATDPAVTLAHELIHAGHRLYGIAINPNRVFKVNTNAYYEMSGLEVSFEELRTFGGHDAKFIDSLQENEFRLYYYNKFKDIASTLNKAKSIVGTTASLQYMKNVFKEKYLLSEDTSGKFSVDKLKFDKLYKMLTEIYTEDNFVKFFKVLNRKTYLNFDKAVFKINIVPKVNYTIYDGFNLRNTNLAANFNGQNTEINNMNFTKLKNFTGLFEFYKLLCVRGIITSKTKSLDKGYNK

[23] = target: T8, Botulinum neurotoxin type A; test: High-throughput multiplex microsphere dose response for inhibitors of toxin protease, specifically Botulinum neurotoxin light chain A protease, compounds from Powder Set 01.; type: functional, Clostridium botulinum A str. ATCC 3502; settings: read-out: EC50_MICROM
[24] = antileishmanial activity on axenic amastigotes – plate reader, cherry pick, dose response (AID 651891); type: functional, cell-based; settings: Leishmania donovani
[25] = African trypanosome bloodstream form growth inhibition – STIB900 strain, plate reader, cherry pick, dose response (AID 651893); type: functional, cell-based, Trypanosoma brucei rhodesiense; settings: Trypanosoma brucei
[26] = Inhibition of T. cruzi Tulahuen strain amastigotes in L-6 muscle cells Measured in Cell-Based and Microorganism Combination System Using Plate Reader - 2138-03_Inhibitor_Dose_CherryPick_Activity.; type: functional; settings: Rattus norvegicus, L6
[27] = L6 myocyte viability loss – cell-based, plate reader, cherry-pick, cytotoxicity control, dose response (AID 651896); type: functional
[28] = Inhibition of Plasmodium falciparum NF54 Measured in Cell-Based System Using Plate Reader - 2138-11_Inhibitor_Dose_CherryPick_Activity.; type: functional
Protein S100-A4 = Protein S100-A4 (Homo sapiens, UniProt P26447); test: human S100A4 peptide interaction inhibition curves – biochemical, fluorescence polarization, cherry-picked hits, dose response (AID 687001); type: functional
Protein S100-A4, sequence (P26447 whole entry): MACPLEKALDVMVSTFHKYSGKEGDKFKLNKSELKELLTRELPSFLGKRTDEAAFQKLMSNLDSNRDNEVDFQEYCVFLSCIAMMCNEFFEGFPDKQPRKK

[29] = target: Palmitoyl-protein thioesterase ABHD10, mitochondrial (Mus musculus, UniProt Q6PE15); test: Late stage assay provider results from the probe development effort to identify inhibitors of PME-1: fluorescence-based dose response biochemical gel-based competitive Activity-Based Protein Profiling (ABPP) inhibition of ABHD10 Set 1.; type: functional
Palmitoyl-protein thioesterase ABHD10, mitochondrial, sequence (Q6PE15 whole entry): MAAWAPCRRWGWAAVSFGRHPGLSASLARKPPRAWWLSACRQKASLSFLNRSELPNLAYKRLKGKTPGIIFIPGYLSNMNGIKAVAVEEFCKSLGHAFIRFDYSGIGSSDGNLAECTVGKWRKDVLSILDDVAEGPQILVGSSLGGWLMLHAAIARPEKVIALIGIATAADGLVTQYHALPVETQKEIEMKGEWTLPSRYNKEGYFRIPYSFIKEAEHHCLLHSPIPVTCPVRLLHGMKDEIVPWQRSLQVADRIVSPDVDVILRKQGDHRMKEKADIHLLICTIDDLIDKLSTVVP

[30] = activation of miR-122 Renilla sensor silencing – cell-based, Huh7 psiCHECK-miR122, Renilla luciferase, cherry-picked, dose response (AID 651956); type: functional;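 also: huh7 hepatoma cells stably carrying a psiCHECK-2 miR-122 sensor plasmid; renilla luciferase signal reporting endogenous miR-122 activity after 48 h compound exposure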
[31] = viability loss in HeLa cells – cytotoxicity control for MgcRacGAP inhibitor project, dose response (AID 624300); type: functional
Cytochrome P450 2C9 = Cytochrome P450 2C9 (Homo sapiens, UniProt P11712)
Cytochrome P450 2C9, sequence (P11712 whole entry): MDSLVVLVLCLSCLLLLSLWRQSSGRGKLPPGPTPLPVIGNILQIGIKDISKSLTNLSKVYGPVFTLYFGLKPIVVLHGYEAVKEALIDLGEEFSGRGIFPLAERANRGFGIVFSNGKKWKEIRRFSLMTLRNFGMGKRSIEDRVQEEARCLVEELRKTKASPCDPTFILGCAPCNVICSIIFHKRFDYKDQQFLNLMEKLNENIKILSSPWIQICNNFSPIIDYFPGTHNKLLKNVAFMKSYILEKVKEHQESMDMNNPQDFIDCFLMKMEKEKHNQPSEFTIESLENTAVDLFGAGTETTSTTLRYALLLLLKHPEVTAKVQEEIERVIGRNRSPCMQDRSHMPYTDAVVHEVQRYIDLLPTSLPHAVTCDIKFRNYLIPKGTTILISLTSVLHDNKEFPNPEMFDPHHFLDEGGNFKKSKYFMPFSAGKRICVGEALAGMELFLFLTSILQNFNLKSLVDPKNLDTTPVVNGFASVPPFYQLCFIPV

T1 sequence (Q79MP6 whole entry): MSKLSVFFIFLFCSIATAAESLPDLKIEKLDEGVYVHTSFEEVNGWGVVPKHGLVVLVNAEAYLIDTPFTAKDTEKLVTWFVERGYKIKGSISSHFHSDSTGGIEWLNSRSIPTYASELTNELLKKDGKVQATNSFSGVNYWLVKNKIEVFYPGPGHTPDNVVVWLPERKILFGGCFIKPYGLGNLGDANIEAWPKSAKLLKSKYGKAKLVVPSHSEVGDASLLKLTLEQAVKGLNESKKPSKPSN

CCCCn1c(S)nnc1-c1nn(C)cc1Cl
IC50 (Beta-lactamase [1]): > 59.6 µM (inactive)
IC50 (Beta-lactamase [2]): > 59.6 µM (inactive)
IC50 (Beta-lactamase [3]): > 59.6 µM (inactive)

COc1ccc(-c2nc(NCCCN(C)C)c3ccccc3n2)cc1
AC50 [4]: 2.39 µM (active)
AC50 [5]: 46.8 µM (active)
AC50 [6]: 6 µM (active)

COc1cc([C@H]2c3c(cc(OC)c(O)c3OC)C[C@@H](CO)[C@@H]2CO[C@@H]2O[C@H](CO)[C@@H](O)[C@H](O)[C@H]2O)cc(OC)c1O
IC50 [7]: 14.2 µM (active)
IC50 [8]: 24.4 µM (inactive)

CCOc1cc(/C=C2\CN(CC)C/C(=C\c3ccc(O)c(OCC)c3)C2=O)ccc1O
AC50 [9]: 14.7 µM (active)
EC50 [10]: 3.65 µM (active)
AC50 [11]: 12.5 µM (active)
EC50 (BJ [12]): 0.583 µM (active)
AC50 [13]: 2.12 µM (active)
IC50 [14]: 46.6 µM (active)
EC50 (BJ [15]): 4.09 µM (active)
AC50 [16]: 9.14 µM (active)
EC50 (BJ [17]): 3.15 µM (inconclusive)

Cc1ccc(S(=O)(=O)N(C)C[C@@H]2Oc3c(NC(=O)c4nc5ccccc5s4)cccc3C(=O)N([C@H](C)CO)C[C@@H]2C)cc1
AC50 [18]: 24.8 µM (active)

CCC(CO)Oc1cc(NCc2cccc(C)c2)c2ncn(C(C)C)c2c1 (stereo unspecified)
IC50 [19]: 12.6 µM (active)
IC50 [20]: 14 µM (active)
IC50 (Caspase-3): 46.6 µM (active)

Cc1ccc(-c2cn3nc(-c4ccccc4)c(-c4ccccc4)nc3n2)cc1
EC50 [21]: 9.1 µM (active)
EC50 (Lethal factor): 2 µM (active)
EC50 [22]: 2.5 µM (active)
EC50 [23]: 1.5 µM (active)

C[C@@H]1CN([C@H](C)CO)C(=O)c2cccc(NC(=O)c3ccncc3)c2O[C@@H]1CN(C)Cc1ccc(Cl)c(Cl)c1
IC50 [24]: > 100 µM (inactive)
IC50 [25]: 11.1 µM (inactive)
IC50 [26]: 5.59 µM (inactive)
IC50 [27]: > 100 µM (inactive)
IC50 [28]: 5.59 µM (inactive)

O=C1C(N2CCOCC2)=Cc2cccc3cccc1c23
AC50 (Protein S100-A4): 1.09 µM (active)

CCCOC(=O)N1C(=O)[C@@](CC)(c2ccc(C)cc2)N1C(=O)OCCC
IC50 [29]: 0.012 µM (active)

C[C@@H]1CN([C@H](C)CO)S(=O)(=O)c2ccc(/C=C/c3ccccc3)cc2O[C@@H]1CN(C)C(=O)c1cccnc1
AC50 [30]: 2.93 µM (active)

CN(C)CCCN1c2ccc3ccccc3c2Sc2cccc(Cl)c21
CC50 [31]: 42.8 µM (active)
IC50 [14]: 48.9 µM (active)
AC50 (Cytochrome P450 2C9): 7.94 µM (inconclusive)
